Results: US20110039721A1, “METHOD FOR PREDICTION ABOUT CARCINOGENICITY OF SUBSTANCE IN RODENT” (Chemicals Evaluation and Research Institute, priority 2007, published 2011)

What was measured:
liver = conditions: in vivo; cited from earlier work
[1] = tested on: mRNA expressed from the genes (A) to (D) in rat liver; assay: Behavior of genes (mRNA expression level, oligo-DNA microarray) in rat liver after 28-day oral administration; format: in vivo
Outline: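 Liver mRNA levels were compared with matched vehicle groups, with a shift of at least 1.5-fold up or down deemed significant unless its direction disagreed with other carcinogens. Test substances were dosed orally by gavage daily for 28 days to 5-week-old male F344 rats, four per group.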

rodent = conditions: in vivo; cited from earlier work
[2] = (A), Unigene Rn.144554, defined direction +, rat liver, oral once daily 28 days
[3] = (A), Unigene Rn.167075, defined direction +, rat liver, oral once daily 28 days, significant = 1.5 times or more or 1/1.5 or less of control
[4] = (A), Unigene Rn.167075, defined direction −, rat liver, oral once daily 28 days
[5] = (A), Unigene Rn.5834, defined direction +, rat liver, oral once daily 28 days
[6] = (A), Unigene Rn.9836, defined direction +, rat liver, oral once daily 28 days
[7] = (B), Unigene Rn.1430, defined direction −, rat liver, oral once daily 28 days
[8] = (B), Unigene Rn.19329, defined direction +, rat liver, oral once daily 28 days
[9] = (B), Unigene Rn.21240, defined direction +, rat liver, oral once daily 28 days
[10] = (C), Unigene Rn.106184, defined direction +, rat liver, oral once daily 28 days
[11] = (C), Unigene Rn.108075, defined direction −, rat liver, oral once daily 28 days
[12] = (C), Unigene Rn.11766, defined direction +, rat liver, oral once daily 28 days
[13] = (C), Unigene Rn.118529, defined direction −, rat liver, oral once daily 28 days
[14] = (C), Unigene Rn.119024, defined direction −, rat liver, oral once daily 28 days
[15] = (C), Unigene Rn.120914, defined direction +, rat liver, oral once daily 28 days
[16] = (C), Unigene Rn.123063, defined direction −, rat liver, oral once daily 28 days
[17] = (C), Unigene Rn.143213, defined direction −, rat liver, oral once daily 28 days
[18] = (C), Unigene Rn.144946, defined direction −, rat liver, oral once daily 28 days
[19] = (C), Unigene Rn.14744, defined direction −, rat liver, oral once daily 28 days
[20] = (C), Unigene Rn.1647, defined direction −, rat liver, oral once daily 28 days
[21] = (C), Unigene Rn.164817, defined direction +, rat liver, oral once daily 28 days
[22] = (C), Unigene Rn.167685, defined direction −, rat liver, oral once daily 28 days
[23] = (C), Unigene Rn.185941, defined direction −, rat liver, oral once daily 28 days
[24] = (C), Unigene Rn.18728, defined direction −, rat liver, oral once daily 28 days
[25] = (C), Unigene Rn.201760, defined direction +, rat liver, oral once daily 28 days
[26] = (C), Unigene Rn.23969, defined direction +, rat liver, oral once daily 28 days
[27] = (C), Unigene Rn.24561, defined direction −, rat liver, oral once daily 28 days
[28] = (C), Unigene Rn.43232, defined direction −, rat liver, oral once daily 28 days
[29] = (C), Unigene Rn.4620, defined direction +, rat liver, oral once daily 28 days
[30] = (C), Unigene Rn.9757, defined direction +, rat liver, oral once daily 28 days
[31] = (C), Unigene Rn.9779, defined direction +, rat liver, oral once daily 28 days
[32] = (C), Unigene Rn.9862, defined direction −, rat liver, oral once daily 28 days
[33] = (D), Unigene Rn.9939, defined direction −, rat liver, oral once daily 28 days

O=NN1CCOCC1 [TS014, N-Nitrosomorpholine]
Liver carcinogenicity (liver): Cr+ | Behavior of gene caused by administration of chemical substance, Gene No. 4846 [1, 2]: + | Behavior of gene caused by administration of chemical substance, Gene No. 4218 [1, 3]: + | Behavior of gene caused by administration of chemical substance, Gene No. 2026 [1, 4]: + | Behavior of gene caused by administration of chemical substance, Gene No. 6182 [1, 5]: + | Behavior of gene caused by administration of chemical substance, Gene No. 5600 [1, 6]: + | Behavior of gene caused by administration of chemical substance, Gene No. 1494 [1, 7]: + | Behavior of gene caused by administration of chemical substance, Gene No. 2045 [1, 8]: − | Behavior of gene caused by administration of chemical substance, Gene No. 2203 [1, 9]: − | Behavior of gene caused by administration of chemical substance, Gene No. 533 [1, 10]: − | Behavior of gene caused by administration of chemical substance, Gene No. 725 [1, 11]: − | Behavior of gene caused by administration of chemical substance, Gene No. 1163 [1, 12]: + | Behavior of gene caused by administration of chemical substance, Gene No. 4973 [1, 13]: − | Behavior of gene caused by administration of chemical substance, Gene No. 4095 [1, 14]: − | Behavior of gene caused by administration of chemical substance, Gene No. 1334 [1, 15]: − | Behavior of gene caused by administration of chemical substance, Gene No. 6620 [1, 15]: − | Behavior of gene caused by administration of chemical substance, Gene No. 6303 [1, 16]: − | Behavior of gene caused by administration of chemical substance, Gene No. 5878 [1, 17]: − | Behavior of gene caused by administration of chemical substance, Gene No. 1131 [1, 18]: − | Behavior of gene caused by administration of chemical substance, Gene No. 1562 [1, 19]: − | Behavior of gene caused by administration of chemical substance, Gene No. 1741 [1, 20]: − | Behavior of gene caused by administration of chemical substance, Gene No. 893 [1, 21]: − | Behavior of gene caused by administration of chemical substance, Gene No. 6026 [1, 22]: − | Behavior of gene caused by administration of chemical substance, Gene No. 154 [1, 23]: − | Behavior of gene caused by administration of chemical substance, Gene No. 1993 [1, 24]: + | Behavior of gene caused by administration of chemical substance, Gene No. 813 [1, 25]: + | Behavior of gene caused by administration of chemical substance, Gene No. 2494 [1, 26]: − | Behavior of gene caused by administration of chemical substance, Gene No. 2546 [1, 27]: − | Behavior of gene caused by administration of chemical substance, Gene No. 3776 [1, 28]: − | Behavior of gene caused by administration of chemical substance, Gene No. 3929 [1, 29]: − | Behavior of gene caused by administration of chemical substance, Gene No. 1119 [1, 30]: − | Behavior of gene caused by administration of chemical substance, Gene No. 6742 [1, 31]: − | Behavior of gene caused by administration of chemical substance, Gene No. 5634 [1, 32]: − | Behavior of gene caused by administration of chemical substance, Gene No. 5726 [1, 33]: − | Carcinogenicity (rodent): C+

CN(C)N=O [TS041, N-Nitrosodimethylamine]
Liver carcinogenicity (liver): Cr+ | Behavior of gene caused by administration of chemical substance, Gene No. 4846 [1, 2]: + | Behavior of gene caused by administration of chemical substance, Gene No. 4218 [1, 3]: + | Behavior of gene caused by administration of chemical substance, Gene No. 2026 [1, 4]: − | Behavior of gene caused by administration of chemical substance, Gene No. 6182 [1, 5]: + | Behavior of gene caused by administration of chemical substance, Gene No. 5600 [1, 6]: + | Behavior of gene caused by administration of chemical substance, Gene No. 1494 [1, 7]: − | Behavior of gene caused by administration of chemical substance, Gene No. 2045 [1, 8]: − | Behavior of gene caused by administration of chemical substance, Gene No. 2203 [1, 9]: − | Behavior of gene caused by administration of chemical substance, Gene No. 533 [1, 10]: − | Behavior of gene caused by administration of chemical substance, Gene No. 725 [1, 11]: − | Behavior of gene caused by administration of chemical substance, Gene No. 1163 [1, 12]: − | Behavior of gene caused by administration of chemical substance, Gene No. 4973 [1, 13]: − | Behavior of gene caused by administration of chemical substance, Gene No. 4095 [1, 14]: − | Behavior of gene caused by administration of chemical substance, Gene No. 1334 [1, 15]: − | Behavior of gene caused by administration of chemical substance, Gene No. 6620 [1, 15]: − | Behavior of gene caused by administration of chemical substance, Gene No. 6303 [1, 16]: − | Behavior of gene caused by administration of chemical substance, Gene No. 5878 [1, 17]: − | Behavior of gene caused by administration of chemical substance, Gene No. 1131 [1, 18]: − | Behavior of gene caused by administration of chemical substance, Gene No. 1562 [1, 19]: − | Behavior of gene caused by administration of chemical substance, Gene No. 1741 [1, 20]: − | Behavior of gene caused by administration of chemical substance, Gene No. 893 [1, 21]: − | Behavior of gene caused by administration of chemical substance, Gene No. 6026 [1, 22]: − | Behavior of gene caused by administration of chemical substance, Gene No. 154 [1, 23]: − | Behavior of gene caused by administration of chemical substance, Gene No. 1993 [1, 24]: − | Behavior of gene caused by administration of chemical substance, Gene No. 813 [1, 25]: − | Behavior of gene caused by administration of chemical substance, Gene No. 2494 [1, 26]: − | Behavior of gene caused by administration of chemical substance, Gene No. 2546 [1, 27]: − | Behavior of gene caused by administration of chemical substance, Gene No. 3776 [1, 28]: − | Behavior of gene caused by administration of chemical substance, Gene No. 3929 [1, 29]: − | Behavior of gene caused by administration of chemical substance, Gene No. 1119 [1, 30]: − | Behavior of gene caused by administration of chemical substance, Gene No. 6742 [1, 31]: + | Behavior of gene caused by administration of chemical substance, Gene No. 5634 [1, 32]: − | Behavior of gene caused by administration of chemical substance, Gene No. 5726 [1, 33]: − | Carcinogenicity (rodent): C+

Oc1cccc2cccnc12 [TS007, 8-Hydroxyquinoline]
Liver carcinogenicity (liver): Cr− | Behavior of gene caused by administration of chemical substance, Gene No. 154 ([1]; rat, in vivo): − | Behavior of gene caused by administration of chemical substance, Gene No. 533 ([1]; rat, in vivo): − | Behavior of gene caused by administration of chemical substance, Gene No. 725 ([1]; rat, in vivo): − | Behavior of gene caused by administration of chemical substance, Gene No. 813 ([1]; rat, in vivo): − | Behavior of gene caused by administration of chemical substance, Gene No. 893 ([1]; rat, in vivo): − | Behavior of gene caused by administration of chemical substance, Gene No. 1119 ([1]; rat, in vivo): − | Behavior of gene caused by administration of chemical substance, Gene No. 1131 ([1]; rat, in vivo): − | Behavior of gene caused by administration of chemical substance, Gene No. 1163 ([1]; rat, in vivo): − | Behavior of gene caused by administration of chemical substance, Gene No. 1334 ([1]; rat, in vivo): − | Behavior of gene caused by administration of chemical substance, Gene No. 1494 ([1]; rat, in vivo): − | Behavior of gene caused by administration of chemical substance, Gene No. 1562 ([1]; rat, in vivo): − | Behavior of gene caused by administration of chemical substance, Gene No. 1741 ([1]; rat, in vivo): − | Behavior of gene caused by administration of chemical substance, Gene No. 1993 ([1]; rat, in vivo): − | Behavior of gene caused by administration of chemical substance, Gene No. 2026 ([1]; rat, in vivo): − | Behavior of gene caused by administration of chemical substance, Gene No. 2045 ([1]; rat, in vivo): − | Behavior of gene caused by administration of chemical substance, Gene No. 2203 ([1]; rat, in vivo): − | Behavior of gene caused by administration of chemical substance, Gene No. 2494 ([1]; rat, in vivo): − | Behavior of gene caused by administration of chemical substance, Gene No. 2546 ([1]; rat, in vivo): − | Behavior of gene caused by administration of chemical substance, Gene No. 3776 ([1]; rat, in vivo): − | Behavior of gene caused by administration of chemical substance, Gene No. 3929 ([1]; rat, in vivo): − | Behavior of gene caused by administration of chemical substance, Gene No. 4095 ([1]; rat, in vivo): − | Behavior of gene caused by administration of chemical substance, Gene No. 4218 ([1]; rat, in vivo): − | Behavior of gene caused by administration of chemical substance, Gene No. 4846 ([1]; rat, in vivo): − | Behavior of gene caused by administration of chemical substance, Gene No. 4973 ([1]; rat, in vivo): − | Behavior of gene caused by administration of chemical substance, Gene No. 5600 ([1]; rat, in vivo): − | Behavior of gene caused by administration of chemical substance, Gene No. 5634 ([1]; rat, in vivo): − | Behavior of gene caused by administration of chemical substance, Gene No. 5726 ([1]; rat, in vivo): + | Behavior of gene caused by administration of chemical substance, Gene No. 5878 ([1]; rat, in vivo): − | Behavior of gene caused by administration of chemical substance, Gene No. 6026 ([1]; rat, in vivo): − | Behavior of gene caused by administration of chemical substance, Gene No. 6182 ([1]; rat, in vivo): − | Behavior of gene caused by administration of chemical substance, Gene No. 6303 ([1]; rat, in vivo): − | Behavior of gene caused by administration of chemical substance, Gene No. 6620 ([1]; rat, in vivo): − | Behavior of gene caused by administration of chemical substance, Gene No. 6742 ([1]; rat, in vivo): − | Carcinogenicity (rodent): C−
